These results are taken from patent US12685735B2 (Foghorn Therapeutics Inc., priority 2020, dated 2026).

One experiment addresses BRM (Homo sapiens, UniProt P51531). In words: ATPase catalytic activity assay of BRM (ADP-Glo). Particulars: for IC50: read-out: BRM IC50 (μM)*. The class given is biochemical. Here is the method: (§1) The ATPase catalytic activity of BRM or BRG-1 was measured by the in vitro biochemical assay using ADP-Glo™ (Promega, V9102). The ADP-Glo™ kinase assay is performed in two steps once the reaction is complete. The first step is to deplete any unconsumed ATP in the reaction. The second step is to convert the reaction product ADP to ATP, which will be utilized by the luciferase to generate luminesce and be detected by a luminescence reader, such as Envision.
(§2) Then following addition of 5 μL of ADP-Glo™ Reagent provided in the kit, the reaction incubates at room temperature for 40 minutes. Then 10 μL of Kinase Detection Reagent provided in the kit is added to convert ADP to ATP, and the reaction incubates at room temperature for 60 minutes. Finally, luminescence measurement is collected with a plate-reading luminometer, such as Envision.
(§3) The ADP-Glo™ kinase assay is performed in two steps once the reaction is complete. The first step is to deplete any unconsumed ATP in the reaction. The second step is to convert the reaction product ADP to ATP, which will be utilized by the luciferase to generate luminesce and be detected by a luminescence reader, such as Envision.
(In ADP-Glo the light output rises with the ADP produced.)

The next experiment has as its target BRG-1 (Homo sapiens, UniProt P51532). Briefly: ATPase catalytic activity assay of BRG-1 (ADP-Glo). Type of experiment: biochemical. To be noted: ATPase catalytic activity, ADP-Glo; for IC50: read-out: BRG1 IC50 (μM)*; for Emax: read-out: BRG1 Max % Inhibition. Here is the method:
as §1, §2, §3

Like-named read-outs stand apart in the source and are kept apart here.

What is called IC50 is the concentration that inhibits the measured activity by half.

BRM, sequence (P51531 whole entry): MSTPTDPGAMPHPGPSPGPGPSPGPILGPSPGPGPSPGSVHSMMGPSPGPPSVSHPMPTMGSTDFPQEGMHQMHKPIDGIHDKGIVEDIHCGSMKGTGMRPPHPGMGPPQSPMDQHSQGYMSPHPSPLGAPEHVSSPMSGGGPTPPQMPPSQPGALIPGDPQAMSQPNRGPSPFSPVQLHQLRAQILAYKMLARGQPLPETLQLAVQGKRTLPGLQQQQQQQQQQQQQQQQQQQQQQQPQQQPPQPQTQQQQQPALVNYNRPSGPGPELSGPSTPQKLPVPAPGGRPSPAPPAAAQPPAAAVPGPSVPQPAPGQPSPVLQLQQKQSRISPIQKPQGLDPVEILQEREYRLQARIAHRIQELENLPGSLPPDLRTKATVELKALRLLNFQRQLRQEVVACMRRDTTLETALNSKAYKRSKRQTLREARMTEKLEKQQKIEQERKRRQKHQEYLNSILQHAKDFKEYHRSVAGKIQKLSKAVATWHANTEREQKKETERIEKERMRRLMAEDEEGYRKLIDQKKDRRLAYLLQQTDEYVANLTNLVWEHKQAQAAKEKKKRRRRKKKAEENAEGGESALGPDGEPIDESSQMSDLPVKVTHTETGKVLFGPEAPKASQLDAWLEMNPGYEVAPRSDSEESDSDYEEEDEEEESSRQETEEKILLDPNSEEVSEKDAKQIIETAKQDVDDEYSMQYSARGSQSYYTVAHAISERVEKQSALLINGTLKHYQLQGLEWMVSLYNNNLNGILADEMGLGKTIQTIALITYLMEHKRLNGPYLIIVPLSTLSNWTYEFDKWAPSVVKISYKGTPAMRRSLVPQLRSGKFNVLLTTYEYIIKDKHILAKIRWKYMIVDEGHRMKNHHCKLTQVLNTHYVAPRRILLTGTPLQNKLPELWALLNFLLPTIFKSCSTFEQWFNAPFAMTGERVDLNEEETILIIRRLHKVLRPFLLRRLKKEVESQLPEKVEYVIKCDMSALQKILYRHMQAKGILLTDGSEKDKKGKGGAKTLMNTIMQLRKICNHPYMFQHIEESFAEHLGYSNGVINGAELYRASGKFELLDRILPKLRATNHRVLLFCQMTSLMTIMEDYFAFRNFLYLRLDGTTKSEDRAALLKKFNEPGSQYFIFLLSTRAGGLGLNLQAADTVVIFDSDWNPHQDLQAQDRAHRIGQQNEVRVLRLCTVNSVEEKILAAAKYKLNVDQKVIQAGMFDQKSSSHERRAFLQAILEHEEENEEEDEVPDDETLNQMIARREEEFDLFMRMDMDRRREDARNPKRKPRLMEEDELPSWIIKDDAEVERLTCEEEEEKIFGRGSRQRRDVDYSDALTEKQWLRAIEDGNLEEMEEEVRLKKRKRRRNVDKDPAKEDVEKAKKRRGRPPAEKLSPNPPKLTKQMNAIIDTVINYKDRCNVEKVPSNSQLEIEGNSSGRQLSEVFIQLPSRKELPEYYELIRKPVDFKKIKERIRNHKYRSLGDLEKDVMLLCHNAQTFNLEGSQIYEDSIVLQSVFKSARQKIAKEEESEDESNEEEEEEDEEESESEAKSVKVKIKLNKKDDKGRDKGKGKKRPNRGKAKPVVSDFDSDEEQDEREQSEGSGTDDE
BRG-1, sequence (P51532 whole entry): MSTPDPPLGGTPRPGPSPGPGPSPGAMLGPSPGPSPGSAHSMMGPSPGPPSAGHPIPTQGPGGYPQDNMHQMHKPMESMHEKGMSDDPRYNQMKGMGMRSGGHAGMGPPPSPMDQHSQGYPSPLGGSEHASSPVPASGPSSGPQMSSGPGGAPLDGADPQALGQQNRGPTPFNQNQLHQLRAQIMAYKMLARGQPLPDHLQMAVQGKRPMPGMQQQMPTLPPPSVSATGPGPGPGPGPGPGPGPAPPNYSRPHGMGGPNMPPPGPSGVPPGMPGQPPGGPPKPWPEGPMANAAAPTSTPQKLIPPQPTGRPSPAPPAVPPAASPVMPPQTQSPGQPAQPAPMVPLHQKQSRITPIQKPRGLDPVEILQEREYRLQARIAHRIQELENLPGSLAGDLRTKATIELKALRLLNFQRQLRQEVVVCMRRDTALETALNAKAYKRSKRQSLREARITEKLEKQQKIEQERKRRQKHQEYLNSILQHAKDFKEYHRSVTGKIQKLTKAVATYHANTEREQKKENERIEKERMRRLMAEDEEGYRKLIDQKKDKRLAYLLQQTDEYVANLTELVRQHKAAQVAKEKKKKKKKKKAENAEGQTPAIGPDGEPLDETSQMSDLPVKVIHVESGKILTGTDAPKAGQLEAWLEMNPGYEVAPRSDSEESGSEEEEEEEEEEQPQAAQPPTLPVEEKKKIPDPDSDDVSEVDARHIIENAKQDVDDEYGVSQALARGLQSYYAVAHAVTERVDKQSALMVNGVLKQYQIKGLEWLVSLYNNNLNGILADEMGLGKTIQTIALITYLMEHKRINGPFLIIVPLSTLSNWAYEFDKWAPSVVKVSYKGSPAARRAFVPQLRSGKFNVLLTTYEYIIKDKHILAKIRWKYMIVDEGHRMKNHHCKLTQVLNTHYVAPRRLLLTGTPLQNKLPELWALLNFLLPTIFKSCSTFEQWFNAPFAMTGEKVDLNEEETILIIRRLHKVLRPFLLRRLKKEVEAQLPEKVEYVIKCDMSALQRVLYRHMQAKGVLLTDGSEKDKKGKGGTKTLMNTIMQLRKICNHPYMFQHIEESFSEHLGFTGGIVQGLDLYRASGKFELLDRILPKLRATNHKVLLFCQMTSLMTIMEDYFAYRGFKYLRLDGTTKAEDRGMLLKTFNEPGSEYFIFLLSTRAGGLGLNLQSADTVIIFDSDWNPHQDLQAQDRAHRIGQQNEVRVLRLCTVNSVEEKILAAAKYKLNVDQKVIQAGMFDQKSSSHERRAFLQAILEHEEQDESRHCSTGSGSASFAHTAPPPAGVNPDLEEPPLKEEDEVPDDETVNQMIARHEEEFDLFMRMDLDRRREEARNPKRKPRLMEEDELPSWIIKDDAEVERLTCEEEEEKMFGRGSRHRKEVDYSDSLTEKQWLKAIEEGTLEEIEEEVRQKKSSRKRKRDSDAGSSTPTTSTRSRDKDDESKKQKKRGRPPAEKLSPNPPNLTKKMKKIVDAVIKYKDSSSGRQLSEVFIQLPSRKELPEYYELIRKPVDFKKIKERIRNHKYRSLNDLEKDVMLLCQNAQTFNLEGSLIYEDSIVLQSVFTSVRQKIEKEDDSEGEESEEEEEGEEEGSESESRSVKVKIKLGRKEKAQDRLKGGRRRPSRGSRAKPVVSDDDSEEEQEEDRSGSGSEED

For `CC(O)(c1cccc(C(=O)NCC(=O)Nc2nc(-c3cccc(-c4ccncc4)c3)cs2)c1)C(F)(F)F` (centres unmarked) [Compound 78, N-(2-oxo-2-((4-(3-(pyridin-4-yl)phenyl)thiazol-2-yl)amino)ethyl)-3-(1,1,1-trifluoro-2-hydroxypropan-2-yl)benzamide], at BRM, the “BRM Max % Inhibition” value is over 80% and the IC50 fell in the range of 0.1 to 1 µM. Further, at BRG-1, the half-inhibitory concentration (IC50) lay in the range of 1 to 5 µM and the Emax was over 40%.

With `Cc1nccc(-c2cccc(-c3csc(NC(=O)CNC(=O)c4cccc(C(C)(C)CO)c4)n3)n2)n1` [Compound 222, 3-(2-hydroxy-1,1-dimethyl-ethyl)-N-[2-[[4-[6-(2-methylpyrimidin-4-yl)-2-pyridyl]thiazol-2-yl]amino]-2-oxo-ethyl]benzamide], at BRM, the “BRM Max % Inhibition” value is over 95% and the IC50 was under 0.1 µM. At BRG-1, the IC50 lay within 0.1 to 1 µM and the Emax was over 80%.

Take `CC(C)(/C(N)=N\O)c1cccc(C(=O)NCC(=O)Nc2nc(-c3cccc(-c4ccncc4)c3)cs2)c1` [Compound 83, (E)-3-(1-amino-1-(hydroxyimino)-2-methylpropan-2-yl)-N-(2-oxo-2-((4-(3-(pyridin-4-yl)phenyl)thiazol-2-yl)amino)ethyl)benzamide]: on BRM, the “BRM Max % Inhibition” value is recorded as over 90% and the IC50 fell in the range of 1 to 5 µM. In addition, on BRG-1, the IC50 was over 5 µM and the Emax was over 50%.

Regarding `C[C@@]1(C#N)COCc2ccc(C(=O)NCC(=O)Nc3nc(-c4cccc(C56CCOCC5C6)c4)cs3)cc21` (stereo partly drawn) [Compound 305, (R)-N-(2-((4-(3-(3-oxabicyclo[4.1.0]heptan-6-yl)phenyl)thiazol-2-yl)amino)-2-oxoethyl)-4-cyano-4-methylisochromane-6-carboxamide], on BRM, the “BRM Max % Inhibition” value was over 95% and the IC50 is under 0.1 µM. At BRG-1, the IC50 lay within 0.1 to 1 µM and the Emax was over 95%.

`C[C@@H]1CN(c2cccc(-c3csc(NC(=O)CNC(=O)c4cccc(C(C)(C)CN)c4)n3)c2)C[C@H](C)O1` [Compound 99]: at BRM, the “BRM Max % Inhibition” value was over 95% and the IC50 was under 0.1 µM. On BRG-1, the IC50 lay within 0.1 to 1 µM and the Emax was over 90%.

For `C[C@@H]1CN(c2cccc(-c3csc(NC(=O)CNC(=O)c4ccc5c(c4)[C@@](C)(CO)CC5)n3)c2)C[C@H](C)O1` [Compound 219, (S)-N-(2-((4-(3-((cis)-2,6-dimethylmorpholino)phenyl)thiazol-2-yl)amino)-2-oxoethyl)-3-(hydroxymethyl)-3-methyl-2,3-dihydro-1H-indene-5-carboxamide], on BRM, the “BRM Max % Inhibition” value is on record as over 95% and the IC50 is under 0.1 µM. On BRG-1, the IC50 lay within 0.1 to 1 µM and the Emax was over 90%.

`CC1(c2cccc(C(=O)NCC(=O)Nc3nc(-c4cccc(-c5ccncc5)c4)cs3)c2)CCNC1=O` (centres unmarked) [Compound 82, 3-(3-methyl-2-oxopyrrolidin-3-yl)-N-(2-oxo-2-((4-(3-(pyridin-4-yl)phenyl)thiazol-2-yl)amino)ethyl)benzamide]: at BRM, the “BRM Max % Inhibition” value was over 95% and the IC50 was in the range of 0.1 to 1 µM. Further, on BRG-1, the IC50 is 0.1 to 1 µM and the Emax was over 90%.

In the case of `CC(C)S(=O)(=O)c1cccc(C(=O)NCC(=O)Nc2nc(-c3cc(C#N)cc(-c4ccc(CN)cc4)c3)cs2)c1` [Compound 33, N-[2-[[4-[3-[4-(aminomethyl)phenyl]-5-cyano-phenyl]thiazol-2-yl]amino]-2-oxo-ethyl]-3-isopropylsulfonyl-benzamide], on BRM, the “BRM Max % Inhibition” value is reported as over 70% and the half-maximal inhibitory concentration (IC50) was over 5 µM. At BRG-1, the IC50 is over 5 µM and the Emax was over 80%.

For `CC1(C#N)CCOc2ccc(C(=O)NCC(=O)Nc3nc(-c4cccc(N5CCC5)c4)cs3)cc21` (stereo in doubt) [Compound 416, (S)-N-(2-((4-(3-(azetidin-1-yl)phenyl)thiazol-2-yl)amino)-2-oxoethyl)-4-cyano-4-methylchromane-6-carboxamide], on BRM (30 nM BRM, 400 μM ATP), the “BRM Max % Inhibition” value is recorded as over 95% and the IC50 is under 0.1 µM. Moreover, at BRG-1 (30 nM BRG-1, 400 μM ATP), the 50% inhibitory concentration (IC50) was 0.1 to 1 µM and the Emax was over 95%.

Consider `CN1CCCc2ccc(C(=O)NCC(=O)Nc3nc(-c4cccc(-c5ccncc5)c4)cs3)cc2S1(=O)=O` [Compound 131, 2-methyl-1,1-dioxo-N-[2-oxo-2-[[4-[3-(4-pyridyl)phenyl]thiazol-2-yl]amino]ethyl]-4,5-dihydro-3H-1,2-benzothiazepine-8-carboxamide], for which, on BRM, the “BRM Max % Inhibition” value is given as over 95% and the IC50 was under 0.1 µM. At BRG-1, the IC50 fell in the range of 0.1 to 1 µM and the Emax is over 70%.

For `C[C@@H]1CN(c2cccc(-c3csc(NC(=O)CNC(=O)c4ccnc(C(C)(C)CO)c4)n3)c2)C[C@H](C)O1` [Compound 139, N-[2-[[4-[3-[(cis)-2,6-dimethylmorpholin-4-yl]phenyl]thiazol-2-yl]amino]-2-oxo-ethyl]-2-(2-hydroxy-1,1-dimethyl-ethyl)pyridine-4-carboxamide], at BRM, the “BRM Max % Inhibition” value was over 95% and the IC50 was in the range of 0.1 to 1 µM. Besides, on BRG-1, the IC50 is 1 to 5 µM and the Emax is over 70%.

As to `C[C@@H]1CN(c2cccc(-c3csc(NC(=O)CNC(=O)c4ccc5c(c4)[C@](C)(C#N)CCO5)n3)n2)C[C@H](C)O1` [Compound 153, (R)-4-cyano-N-(2-((4-(6-((cis)-2,6-dimethylmorpholino)pyridin-2-yl)thiazol-2-yl)amino)-2-oxoethyl)-4-methylchroman-6-carboxamide], on BRM, the “BRM Max % Inhibition” value is on record as over 95% and the IC50 is under 0.1 µM. In addition, on BRG-1, the IC50 was under 0.1 µM and the Emax was over 95%.

In the case of `C[C@@H]1CN(c2cccc(-c3csc(NC(=O)CNC(=O)c4ccc5c(c4)[C@@](C)(CO)CC5)n3)n2)C[C@H](C)O1` [Compound 224, (3S)-N-[2-[[4-[6-[(cis)-2,6-dimethylmorpholin-4-yl]-2-pyridyl]thiazol-2-yl]amino]-2-oxo-ethyl]-3-(hydroxymethyl)-3-methyl-indane-5-carboxamide], on BRM, the “BRM Max % Inhibition” value is over 95% and the IC50 was under 0.1 µM. In addition, on BRG-1, the IC50 is 0.1 to 1 µM and the Emax is over 95%.

Regarding `C[C@@H]1CN(c2cccc(-c3csc(NC(=O)CNC(=O)c4ccc5c(c4)[C@](C#N)(CO)CC5)n3)n2)C[C@H](C)O1` [Compound 159, (R)-3-cyano-N-(2-((4-(6-((cis)-2,6-dimethylmorpholino)pyridin-2-yl)thiazol-2-yl)amino)-2-oxoethyl)-3-(hydroxymethyl)-2,3-dihydro-1H-indene-5-carboxamide], at BRM, the “BRM Max % Inhibition” value is listed as over 95% and the IC50 was under 0.1 µM. On BRG-1, the IC50 was under 0.1 µM and the Emax was over 95%.

On to `C[C@@H]1CN(c2cccc(-c3csc(NC(=O)CNC(=O)c4cccc([C@]5(C(F)F)CCCO5)c4)n3)c2)C[C@H](C)O1` [Compound 291, 3-((S)-2-(difluoromethyl)tetrahydrofuran-2-yl)-N-(2-((4-(3-((cis)-2,6-dimethylmorpholino)phenyl)thiazol-2-yl)amino)-2-oxoethyl)benzamide], for which, at BRM, the “BRM Max % Inhibition” value was over 90% and the IC50 was in the range of 0.1 to 1 µM. On BRG-1, the IC50 was over 5 µM and the Emax is over 90%.

For `C[C@@H]1CN(c2cccc(-c3csc(NC(=O)CNC(=O)c4ccc5c(c4)[C@@H]([C@H](C)O)CC5)n3)n2)C[C@H](C)O1` [Compound 140, (3S)-N-[2-[[4-[6-[(cis)-2,6-dimethylmorpholin-4-yl]-2-pyridyl]thiazol-2-yl]amino]-2-oxo-ethyl]-3-[(1S)-1-hydroxyethyl]indane-5-carboxamide], at BRM, the “BRM Max % Inhibition” value is on record as over 95% and the IC50 is 0.1 to 1 µM. Besides, at BRG-1, the IC50 was over 5 µM and the Emax was over 50%.

With `Cc1cc(-c2cccc(-c3csc(NC(=O)CNC(=O)c4cccc(C(C)(C)CN)c4)n3)c2)cc(C)n1` [Compound 66, 3-(1-amino-2-methylpropan-2-yl)-N-(2-((4-(3-(2,6-dimethylpyridin-4-yl)phenyl)thiazol-2-yl)amino)-2-oxoethyl)benzamide], on BRM, the “BRM Max % Inhibition” value was over 95% and the IC50 was under 0.1 µM. In addition, at BRG-1, the half-maximal inhibitory concentration (IC50) was in the range of 0.1 to 1 µM and the Emax is over 90%.

For the molecule `CC(C)S(=O)(=O)c1cccc(C(=O)NCC(=O)Nc2nc(-c3cccc(-c4ccnc(CN(C)C)c4)c3)cs2)c1` [Compound 45, N-(2-((4-(3-(2-((dimethylamino)methyl)pyridin-4-yl)phenyl)thiazol-2-yl)amino)-2-oxoethyl)-3-(isopropylsulfonyl)benzamide], the “BRM Max % Inhibition” value on BRM is over 95%. In addition, the results for the IC50 at BRM and on BRG-1 were under 0.1 µM and 1 to 5 µM, respectively.
